Test results published in patent US8222434B1, “Bactobolin analog and synthesis method thereof” (priority 2009, dated 2012).
“Also recorded” adds a separate entry of the source.

Key:
[1] = tested on: BtaR2; format: cell-based, B. thailandensis
[2] = tested on: B. thailandensis JBT112; format: cell-based, Burkholderia thailandensis
[3] = tested on: BtaR2; format: cell-based, B. thailandensis; settings: 3 h
[4] = tested on: B. subtilis; format: cell-based, Bacillus subtilis; settings: disc soaked in sterile medium containing 2 μM 3OHC10-HSL; B. subtilis lawn
[5] = tested on: B. subtilis 3610; assay: CLSI microtiter MIC assay; format: cell-based, Bacillus subtilis; settings: 24 hours at 35° C., average from two independent experiments
Experimental: (§1) To test the potency of bactobolins, antibiotic assays were carried out against the human pathogens MRSA, VRE and V. parahaemo-lyticus, and against B. subtilis and E. coli (Table 3-C).
(§2) The minimum inhibitory concentrations (MIC) of each bactobolin was determined according to the 2003 guidelines of the Clinical and Laboratory Standards Institute (CLSI, formerly NCCLS) using the microtiter MIC method. Inocula for each test organism were prepared by suspending a colony from an LB agar plate into Tryptic Soy Broth and growing for 3-5 hours at 35° C. with shaking, then adjusting the culture turbidity in PBS to the equivalent of a 1.0 McFarland Standard (3×10^8 CFU/ml). These cell suspensions were used as inocula for microtiter MIC assays. 2.5 μL inoculum, which corresponded to 1×10^6 cells, was added to a 200 μL well containing each bactobolin diluted in cation-adjusted Mueller-Hinton II broth (actual CFU/ml ranged from 5×104 to 1×106), and these were incubated without shaking for 24 hours at 35° C. The MIC was defined as the lowest concentration of bactobolin (μg/ml) in which bacterial growth in the well was not measurable by determining the turbidity at 595 nm (A595) on a 96-well plate reader. See Table S8 for strains used in these assays.

[6] = tested on: E. faecalis V583 (VRE); assay: CLSI microtiter MIC assay; format: cell-based, Enterococcus faecalis; settings: 24 hours at 35° C., average from two independent experiments
Experimental: as §1, §2

[7] = tested on: S. aureus COL (MRSA); assay: CLSI microtiter MIC assay; format: cell-based, Staphylococcus aureus; settings: for Minimum Inhibitory Concentration (MIC): S. aureus COL (MRSA), 24 hours at 35° C., average from two independent experiments
Experimental: as §1, §2

[8] = tested on: V. parahaemolyticus LM5674; assay: CLSI microtiter MIC assay; format: cell-based, Vibrio parahaemolyticus
Experimental: as §1, §2

[9] = tested on: E. coli ATCC25922; assay: CLSI microtiter MIC assay; format: cell-based, Escherichia coli; settings: 24 hours at 35° C., average from two independent experiments
Experimental: as §1, §2

[10] = tested on: MRSA, VRE and V. parahaemo-lyticus, B. subtilis and E. coli; assay: Antibiotic assays of bactobolins, overall comparison; format: cell-based; settings: comparison over Table 3-C strains
Experimental: as §1, §2

[11] = tested on: translation; settings: relative to bactobolin; cited from earlier work
[12] = tested on: E. coli; settings: relative to bactobolin; cited from earlier work
[13] = tested on: tumor; settings: relative to bactobolin; cited from earlier work
[14] = tested on: B. thailandensis E264 (wt); format: cell-based, Burkholderia thailandensis
[15] = tested on: B. thailandensis ΔbtaT (BD44); format: cell-based, Burkholderia thailandensis
[16] = tested on: B. thailandensis ΔbtaI1, I2, I3 (JBT112); format: cell-based, Burkholderia thailandensis

| Compound | Restoration of antibiotic production in JBT112 [2] | Activation of btaI2-lacZ transcription [3] | Minimum Inhibitory Concentration (MIC) [5] [mg/L] | Minimum Inhibitory Concentration (MIC) [6] [mg/L] | Minimum Inhibitory Concentration (MIC) [7] [mg/L] | Minimum Inhibitory Concentration (MIC) [9] [mg/L] | Relative potency among bactobolins [10] | other results |
| --- | --- | --- | --- | --- | --- | --- | --- | --- |
| CCCCCC(O)CC(=O)N[C@H]1CCOC1=O (stereo partly shown) [Bactobolin 3OHC8-HSL] | requires exogenous 3OHC8-HSL or 3OHC10-HSL for antibiotic production | Activation |  |  |  |  |  | BtaR2-dependent induction of lacZ (1233 promoter) [1]: sufficient for BtaR2-dependent induction of lacZ |
| CCCCCCCC(O)CC(=O)N[C@H]1CCOC1=O (stereo partly shown) [Bactobolin 3OHC10-HSL] | requires exogenous 3OHC8-HSL or 3OHC10-HSL for antibiotic production | Activation |  |  |  |  |  | BtaR2-dependent induction of lacZ (1233 promoter) [1]: sufficient for BtaR2-dependent induction of lacZ; antibiotic activity of acyl-HSL alone, diffusion disc [4]: not an antimicrobial molecule; also recorded: does not have antibiotic activity |
| CCCCCCCC(=O)N[C@H]1CCOC1=O [Bactobolin C8-HSL] | unable to restore antibiotic production | no detectable response |  |  |  |  |  |  |
| CCCCCCCCCC(=O)N[C@H]1CCOC1=O [Bactobolin C10-HSL, N-decanoyl-HSL] |  | response |  |  |  |  |  |  |
| CCCCCCCCCCCC(=O)N[C@H]1CCOC1=O [Bactobolin C12-HSL, N-dodecanoyl-HSL] |  | response |  |  |  |  |  |  |
| C[C@@H](N)C(=O)N[C@@H]1[C@@H]2C[C@H](O)CC(O)=C2C(=O)O[C@]1(C)C(Cl)Cl [Bactobolin C] |  |  | 12.5 | >25 | 6.25 | 25 |  | Antibiotic effectiveness in words ([7]; MRSA): effective against these strains, though to a lesser extent; Antibiotic effectiveness in words ([8]; V. parahaemolyticus): effective against these strains, though to a lesser extent; Minimum Inhibitory Concentration (MIC) ([8]; V. parahaemolyticus LM5674, 24 hours at 35° C., average from two independent experiments): 1.56 mg/L |
| C[C@H](N)C(=O)N[C@@H](C)C(=O)N[C@@H]1[C@@H]2C[C@H](O)CC(O)=C2C(=O)O[C@]1(C)C(Cl)Cl [Bactobolin D] |  |  | 100 |  | 37.5 | >100 | weakest analog |  |
| C[C@H](N)C(=O)N[C@@H]1[C@H]2C(=C(O)C[C@@H](O)[C@@H]2O)C(=O)O[C@@H]1C [actinobolin] |  |  |  |  |  |  |  | less active than bactobolin, in vitro inhibition of translation [11]: 1000 fold; less active than bactobolin, E. coli kill-assays [12]: 21 fold; less active than bactobolin, murine antitumor activity [13]: 900 fold |
| Bactobolin A |  |  | 1.56 | >25 | 0.78 | 6.25 | more potent than bactobolins C and D |  |
| Bactobolin B |  |  | 0.39 | 25 |  | 1.56 | more potent than bactobolins C and D | Bactobolin B MIC [14]: >25 mg/L; Bactobolin B MIC [15]: >25 mg/L; Bactobolin B MIC [16]: >25 mg/L |
